Data on 14 compounds can be found in patent US20050245563A1 (Millennium Pharmaceuticals, Inc., priority 2003, published 2005).

In the experiment the target is T1, human Chk1 (GST-Chk1) (Homo sapiens, UniProt O14757).
T1 construct: made in house; host or cells: insect cells (baculovirus, Bac-to-Bac)
T1 sequence (O14757 1-476): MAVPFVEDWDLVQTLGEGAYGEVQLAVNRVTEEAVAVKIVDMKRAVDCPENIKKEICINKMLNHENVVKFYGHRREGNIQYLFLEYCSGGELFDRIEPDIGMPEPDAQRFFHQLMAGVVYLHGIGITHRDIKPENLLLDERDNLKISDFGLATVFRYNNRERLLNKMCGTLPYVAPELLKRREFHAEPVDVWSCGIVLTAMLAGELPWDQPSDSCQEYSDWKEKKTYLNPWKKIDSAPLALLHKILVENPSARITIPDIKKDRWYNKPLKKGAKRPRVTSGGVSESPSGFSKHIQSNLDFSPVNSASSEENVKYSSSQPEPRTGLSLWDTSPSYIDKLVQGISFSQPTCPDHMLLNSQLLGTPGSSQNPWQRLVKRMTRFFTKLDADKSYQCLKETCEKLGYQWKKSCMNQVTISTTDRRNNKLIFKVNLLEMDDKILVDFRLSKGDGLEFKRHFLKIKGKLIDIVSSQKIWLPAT
Kind of experiment: Chk1 FlashPlate kinase assay. It is filed as biochemical. As to conditions: 8.7 nM GST-Chk1, 1 uM ATP, 33P incorporation into peptide substrate. How it is done: Recombinant human Chk1 was expressed as a fusion protein with glutathione S-transferase at the amino-terminus (GST-Chk1) using standard baculovirus vectors and (Bac-to-Bac®) insect cell expression system purchased from GIBCO™ Invitrogen. Recombinant protein expressed in insect cells was purified using glutathione sepharose (Amersham Biotech) using standard procedures described by the manufacturer.
Chk1 FlashPlate® Kinase Assay:
Assays (25 μL) contained 8.7 nM GST-Chk1, 10 mM MES, 0.1 mM ethylene glycol-bis(β-aminoethylether)-N,N,N′,N′-tetracetic acid (EGTA, pH 8.0), 2 mM DTT, 0.05% Tween 20, 3 uM peptide substrate (Biotin-ILSRRPSYRKILND-free acid) (SEQ ID NO: 1), 1 uM ATP, 0.4 uCi ^33P-γ-ATP (NEN), 4% DMSO. Reactions were incubated for 30 minutes at room temperature, terminated with 50 μL of 50 mM EDTA and 90 μL were transferred to streptavidin-coated FlashPlates® (NEN) and incubated for 1 hour at room temperature. Plates were washed with phosphate buffered salaine containing 0.01% Tween-20 and 10 mM sodium pyrophosphate. Plates were dried, sealed with Topseal™ (NEN) and amount of ^33P incorporated into the peptide substate measure using a Packard Topcount® NXT™ scintillation counter with standard settings.

Molecules are shown by their SMILES.

As a reminder, the IC50 is the midpoint of a concentration-inhibition curve. Low readings indicate inhibition by little substance, high ones a need for much substance. As for `Cc1n[nH]c2c1c(=O)n(CC1CCCN(C(=O)OC(C)(C)C)C1)c1ccc(Br)cc21` (centres unmarked) [Example 30, 3-(8-Bromo-3-methyl-4-oxo-1,4-dihydro-pyrazolo[4,3-c]quinolin-5-ylmethyl)-piperidine-1-carboxylic acid tert-butyl ester], the IC50 lay in the range of 1000 to 20000 nM. The value for `Cc1n[nH]c2c1c(=O)n(CCCNC(=O)OC(C)(C)C)c1ccc(Cl)cc21` [Example 31, [3-(8-Chloro-3-methyl-4-oxo-1,4-dihydro-pyrazolo[4,3-c]quinolin-5-yl)-propyl]-carbamic acid tert-butyl ester] was under 1000 nM.

With `Cc1[nH]nc2c1c(=O)n(CCCN)c1ccc(Cl)cc21` [Example 32, 5-(3-Amino-propyl)-8-chloro-3-methyl-1,5-dihydro-pyrazolo[4,3-c]quinolin-4-one], the IC50 is under 1000 nM.

`Cc1n[nH]c2c1c(=O)n(CCCCN)c1ccc(Br)cc21` [Example 34, 5-(4-Amino-butyl)-8-bromo-3-methyl-1,5-dihydro-pyrazolo[4,3-c]quinolin-4-one] gave an IC50 of under 1000 nM. The compound `Cc1[nH]nc2c1c(=O)n(CCCNC(=O)CC(C)C)c1ccccc21` [Example 35, 3-Methyl-N-[3-(3-methyl-4-oxo-2,4-dihydro-pyrazolo[4,3-c]quinolin-5-yl)-propyl]-butyramide] gave an IC50 of under 1000 nM. The value for `Cc1n[nH]c2c1c(=O)n(CCCCNC(=O)c1ccccc1)c1ccc(Br)cc21` [Example 36, N-[4-(8-Bromo-3-methyl-4-oxo-1,4-dihydro-pyrazolo[4,3-c]quinolin-5-yl)-butyl]-benzamide] was under 1000 nM; that for `Cc1n[nH]c2c1c(=O)n(CC1CCN(C(=O)OC(C)(C)C)CC1)c1ccc(Br)cc21` [Example 37, 4-(8-Bromo-3-methyl-4-oxo-1,4-dihydro-pyrazolo[4,3-c]quinolin-5-ylmethyl)-piperidine-1-carboxylic acid tert-butyl ester] was 1000 to 20000 nM; that for `Cc1n[nH]c2c1c(=O)n(CC1CCNCC1)c1ccc(Br)cc21` [Example 39, 8-Bromo-3-methyl-5-piperidin-4-ylmethyl-1,5-dihydro-pyrazolo[4,3-c]quinolin-4-one] was under 1000 nM. Under `Cc1n[nH]c2c1c(=O)n(CCCNC(=O)c1ccc(Cl)cc1)c1ccc(Cl)cc21` [Example 40, 4-Chloro-N-[3-(8-chloro-3-methyl-4-oxo-1,4-dihydro-pyrazolo[4,3-c]quinolin-5-yl)-propyl]-benzamide] stands under 1000 nM. `Cc1n[nH]c2c1c(=O)n(CC(C)CNC(=O)OC(C)(C)C)c1ccc(Br)cc21` (centres unmarked) [Example 41, [3-(8-Bromo-3-methyl-4-oxo-1,4-dihydro-pyrazolo[4,3-c]quinolin-5-yl)-2-methyl-propyl]-carbamic acid tert-butyl ester] displayed an IC50 of under 1000 nM. The value for `Cc1n[nH]c2c1c(=O)n(CC(C)CN)c1ccc(Br)cc21` (centres unmarked) [Example 42, 5-(3-Amino-2-methyl-propyl)-8-bromo-3-methyl-1,5-dihydro-pyrazolo[4,3-c]quinolin-4-one] was under 1000 nM.

As for `Cc1n[nH]c2c1c(=O)n(CCCNC(=O)OCc1ccccc1)c1ccc(Br)cc21` [Example 43, [3-(8-Bromo-3-methyl-4-oxo-1,4-dihydro-pyrazolo[4,3-c]quinolin-5-yl)-propyl]-carbamic acid benzyl ester], the IC50 was under 1000 nM. Turning to `Cc1ccc2c(c1)c1n[nH]c(C)c1c(=O)n2CCCNC(=O)OC(C)(C)C` [Example 44, [3-(3,8-Dimethyl-4-oxo-2,4-dihydro-pyrazolo[4,3-c]quinolin-5-yl)-propyl]-carbamic acid tert-butyl ester], the IC50 was under 1000 nM. In turn, `Cc1ccc2c(c1)c1n[nH]c(C)c1c(=O)n2CCCN` [Example 45, 5-(3-Amino-propyl)-3,8-dimethyl-2,5-dihydro-pyrazolo[4,3-c]quinolin-4-one] gave an IC50 of under 1000 nM.
